Assay results taken from ChEMBL document CHEMBL1201862, “PubChem BioAssay data set” (2004).
Active and inactive are the calls of the source.

Experiments:
[1] = biological target: T1, Nucleotide-binding oligomerization domain-containing protein 2 (Homo sapiens, UniProt Q9HC29); assay: NOD2 inhibitors, SAR follow-up, set 2 (AID 2475); format: functional
HEK293 [2] = assay: SAR analysis of compounds that are cytotoxic to HEK293 - Set 2. [Related pubchem assays (depositor defined):AID1575, AID1578, AID1849, AID2001, AID2333, AID2334, AID2335, AID2337, AID2800]; format: functional, cell-based; conditions: Homo sapiens
[3] = biological target: T1, Nucleotide-binding oligomerization domain-containing protein 2; assay: NOD2 signaling inhibitors, analog potency, SAR follow-up, cell-based, set 3 (AID 2799); format: functional
[4] = biological target: T2, Nucleotide-binding oligomerization domain-containing protein 1 (Homo sapiens, UniProt Q9Y239); assay: SAR analysis of compounds that inhibit NOD1 - Set 3. [Related pubchem assays (depositor defined):AID1566, AID1575, AID1578, AID1849, AID1852, AID2333, AID2335, AID2466]; format: functional
T2 sequence (Q9Y239 whole entry, the tested form may be a part): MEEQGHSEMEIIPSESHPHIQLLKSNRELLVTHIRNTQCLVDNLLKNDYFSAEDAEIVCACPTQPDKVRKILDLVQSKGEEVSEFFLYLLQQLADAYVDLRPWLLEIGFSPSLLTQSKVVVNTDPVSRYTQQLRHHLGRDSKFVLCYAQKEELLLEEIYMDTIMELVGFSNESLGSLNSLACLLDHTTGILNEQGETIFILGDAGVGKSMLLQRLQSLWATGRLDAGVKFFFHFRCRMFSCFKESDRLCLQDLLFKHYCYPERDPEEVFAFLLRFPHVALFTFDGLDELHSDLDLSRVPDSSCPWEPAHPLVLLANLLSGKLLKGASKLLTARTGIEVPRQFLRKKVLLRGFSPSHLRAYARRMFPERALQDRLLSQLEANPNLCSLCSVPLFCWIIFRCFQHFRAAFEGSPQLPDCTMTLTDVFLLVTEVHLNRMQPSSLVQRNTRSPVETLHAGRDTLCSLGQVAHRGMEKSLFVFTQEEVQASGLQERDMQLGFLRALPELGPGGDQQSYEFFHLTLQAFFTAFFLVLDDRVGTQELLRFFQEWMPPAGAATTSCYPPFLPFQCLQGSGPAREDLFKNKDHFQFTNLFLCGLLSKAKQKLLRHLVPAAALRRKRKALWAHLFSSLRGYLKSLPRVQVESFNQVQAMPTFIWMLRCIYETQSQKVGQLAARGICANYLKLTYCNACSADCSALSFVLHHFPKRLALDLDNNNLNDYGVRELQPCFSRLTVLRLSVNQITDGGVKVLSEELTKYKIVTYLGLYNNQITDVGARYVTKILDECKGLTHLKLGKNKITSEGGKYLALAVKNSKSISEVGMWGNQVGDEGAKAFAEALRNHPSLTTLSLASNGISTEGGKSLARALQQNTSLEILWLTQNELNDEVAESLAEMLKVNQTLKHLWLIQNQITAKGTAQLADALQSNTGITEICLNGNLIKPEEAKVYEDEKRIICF

HEK293 [5] = assay: SAR analysis of compounds that are cytotoxic to HEK293 - Set 3. [Related pubchem assays (depositor defined):AID1575, AID1578, AID1848, AID1849, AID2001, AID2333, AID2334, AID2335, AID2337, AID2469]; format: functional, cell-based; conditions: Homo sapiens
Tumor necrosis factor = Tumor necrosis factor (Homo sapiens, UniProt P01375); assay: TNFa-triggered NF-kB activation inhibitors, SAR follow-up, cell-based, set 3 (AID 2801); format: functional
Sequence of Tumor necrosis factor (P01375 whole entry, the tested form may be a part): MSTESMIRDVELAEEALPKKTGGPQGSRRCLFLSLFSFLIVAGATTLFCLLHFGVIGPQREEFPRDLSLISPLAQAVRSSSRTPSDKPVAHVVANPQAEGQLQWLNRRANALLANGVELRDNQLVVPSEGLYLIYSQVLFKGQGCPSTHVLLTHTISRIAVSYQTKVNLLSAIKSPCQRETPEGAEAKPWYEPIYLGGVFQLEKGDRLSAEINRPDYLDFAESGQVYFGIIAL

[6] = biological target: T2, Nucleotide-binding oligomerization domain-containing protein 1; assay: SAR analysis of NF-kappaB dependent luciferase using DAP as an inducer - Set 2. [Related pubchem assays (depositor defined):AID1566, AID1575, AID1578, AID1579, AID1849, AID1852, AID2264]; format: functional
Interleukin-8 [7] = biological target: T3, Interleukin-8 (Homo sapiens, UniProt P10145); assay: SAR analysis of GM-Tri-DAP induced IL-8 secretion in MCF-7/NOD1 cells - Set 2. [Related pubchem assays (depositor defined):AID1575, AID1578, AID2333]; format: functional, cell-based
T3 sequence (P10145 whole entry): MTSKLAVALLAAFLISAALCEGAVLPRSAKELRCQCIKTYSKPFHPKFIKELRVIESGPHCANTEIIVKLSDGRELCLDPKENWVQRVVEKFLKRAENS

Interleukin-8 [8] = biological target: T3, Interleukin-8; assay: SAR analysis of Tumor necrosis factor alpha (TNF-alpha) induced IL-8 secretion in MCF-7/NOD1 cells - Set 2. [Related pubchem assays (depositor defined):AID1575, AID2250, AID2260]; format: functional, cell-based
Vero = Vero cell cytotoxicity, cytotoxicity control for flavivirus capping enzyme inhibitors (AID 588742); format: functional; conditions: Chlorocebus sabaeus
[9] = biological target: NAD-dependent protein deacylase sirtuin-5, mitochondrial (Homo sapiens, UniProt Q9NXA8); assay: SIRT5 desuccinylase inhibitors, dose response, biochemical, fluorescence imaging, cherry-pick, set 5 (AID 720591);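 note: desuccinylation of succinyl peptide AMC substrate read as fluorescence after trypsin release; potency of inhibitors that lower fluorescence and may act on trypsin instead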
Sequence of NAD-dependent protein deacylase sirtuin-5, mitochondrial (Q9NXA8 whole entry): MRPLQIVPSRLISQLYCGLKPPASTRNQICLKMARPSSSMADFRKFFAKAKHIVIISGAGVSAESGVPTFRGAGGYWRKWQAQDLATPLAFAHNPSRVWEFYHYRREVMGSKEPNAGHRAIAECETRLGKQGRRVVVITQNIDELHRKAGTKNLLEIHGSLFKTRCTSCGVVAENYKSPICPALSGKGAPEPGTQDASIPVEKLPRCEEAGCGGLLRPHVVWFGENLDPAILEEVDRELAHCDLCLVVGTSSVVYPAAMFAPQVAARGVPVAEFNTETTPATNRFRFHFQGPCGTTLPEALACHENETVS

[10] = biological target: Lysine-specific demethylase 4A (Homo sapiens, UniProt O75164); assay: JMJD2A histone demethylase inhibitors, dose response, selectivity assay for GASC-1 inhibitor project, biochemical, DELFIA europium, cherry-picked samples (AID 488840)
Sequence of Lysine-specific demethylase 4A (O75164 whole entry): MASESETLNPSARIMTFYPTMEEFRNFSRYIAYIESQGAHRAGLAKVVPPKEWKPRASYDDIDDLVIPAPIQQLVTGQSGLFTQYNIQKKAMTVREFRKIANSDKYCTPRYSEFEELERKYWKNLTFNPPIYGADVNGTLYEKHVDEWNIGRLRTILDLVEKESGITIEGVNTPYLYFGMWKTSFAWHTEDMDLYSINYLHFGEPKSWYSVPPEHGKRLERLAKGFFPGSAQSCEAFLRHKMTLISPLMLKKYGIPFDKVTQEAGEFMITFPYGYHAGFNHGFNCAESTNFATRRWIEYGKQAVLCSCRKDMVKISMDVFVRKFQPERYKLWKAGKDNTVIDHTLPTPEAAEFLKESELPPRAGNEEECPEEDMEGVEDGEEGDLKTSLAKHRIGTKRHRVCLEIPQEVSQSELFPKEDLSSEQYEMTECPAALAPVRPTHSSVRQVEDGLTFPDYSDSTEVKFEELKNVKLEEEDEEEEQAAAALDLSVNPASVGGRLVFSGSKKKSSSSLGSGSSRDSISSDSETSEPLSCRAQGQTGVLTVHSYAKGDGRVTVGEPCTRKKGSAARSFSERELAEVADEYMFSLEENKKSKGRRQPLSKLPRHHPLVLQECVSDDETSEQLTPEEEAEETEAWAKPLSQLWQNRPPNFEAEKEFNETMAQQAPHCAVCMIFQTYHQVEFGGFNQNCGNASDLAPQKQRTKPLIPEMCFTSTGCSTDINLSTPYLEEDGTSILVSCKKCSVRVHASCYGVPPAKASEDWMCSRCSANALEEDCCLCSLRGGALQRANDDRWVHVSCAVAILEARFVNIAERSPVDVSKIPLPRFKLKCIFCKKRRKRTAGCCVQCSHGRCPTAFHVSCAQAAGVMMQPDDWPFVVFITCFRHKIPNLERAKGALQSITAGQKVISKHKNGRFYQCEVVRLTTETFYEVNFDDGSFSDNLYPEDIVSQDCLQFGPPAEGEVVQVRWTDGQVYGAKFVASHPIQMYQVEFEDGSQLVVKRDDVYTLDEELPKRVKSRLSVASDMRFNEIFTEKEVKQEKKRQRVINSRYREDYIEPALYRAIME

[11] = biological target: T4, Corticotropin-releasing factor receptor 2/Corticotropin-releasing factor-binding protein (Homo sapiens, UniProt P24387+Q13324); assay: Dose Response confirmation of uHTS hits for small molecule antagonists of the CRF-binding protein and CRF-R2 receptor complex.; format: functional; conditions: read-out: IC50_Mean
T4 sequence (Q13324 whole entry): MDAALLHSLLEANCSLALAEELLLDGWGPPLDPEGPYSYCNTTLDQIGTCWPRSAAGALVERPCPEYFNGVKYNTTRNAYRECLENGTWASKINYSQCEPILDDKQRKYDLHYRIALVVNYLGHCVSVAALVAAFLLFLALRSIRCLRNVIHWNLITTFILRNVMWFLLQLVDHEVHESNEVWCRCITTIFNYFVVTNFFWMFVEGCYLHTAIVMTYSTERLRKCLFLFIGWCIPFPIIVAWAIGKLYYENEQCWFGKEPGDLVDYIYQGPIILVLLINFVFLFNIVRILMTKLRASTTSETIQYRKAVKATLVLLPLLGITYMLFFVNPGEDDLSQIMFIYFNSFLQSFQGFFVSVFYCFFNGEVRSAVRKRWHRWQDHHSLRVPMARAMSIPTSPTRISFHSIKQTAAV
T4 sequence (P24387 whole entry): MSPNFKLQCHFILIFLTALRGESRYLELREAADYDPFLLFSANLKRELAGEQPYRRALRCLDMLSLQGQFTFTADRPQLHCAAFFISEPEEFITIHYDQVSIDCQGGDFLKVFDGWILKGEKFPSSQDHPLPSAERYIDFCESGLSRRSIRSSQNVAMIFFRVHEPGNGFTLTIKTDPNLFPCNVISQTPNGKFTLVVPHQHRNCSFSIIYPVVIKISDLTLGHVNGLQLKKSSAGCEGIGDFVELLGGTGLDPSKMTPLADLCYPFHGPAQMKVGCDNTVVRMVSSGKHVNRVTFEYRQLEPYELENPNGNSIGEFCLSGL

[12] = biological target: Lysine-specific demethylase 4C (Homo sapiens, UniProt Q9H3R0); assay: GASC-1 (JMJD2C) histone demethylase inhibitors, dose response, biochemical, DELFIA europium, cherry-picked samples (AID 488835); format: functional
[13] = biological target: T4, Corticotropin-releasing factor receptor 2/Corticotropin-releasing factor-binding protein; assay: activators of CRF receptor 2 with binding protein – uHTS hits, confirmation (AID 602473); format: functional; conditions: read-out: EC50_Mean
Genome polyprotein = Genome polyprotein (dengue virus type 2, UniProt P29990); assay: Dengue-2 NS5 methyltransferase inhibitors, primary screen, biochemical, confirmation dose response (AID 588689); format: functional
Sequence of Genome polyprotein (P29990 2492-3391 limits assumed): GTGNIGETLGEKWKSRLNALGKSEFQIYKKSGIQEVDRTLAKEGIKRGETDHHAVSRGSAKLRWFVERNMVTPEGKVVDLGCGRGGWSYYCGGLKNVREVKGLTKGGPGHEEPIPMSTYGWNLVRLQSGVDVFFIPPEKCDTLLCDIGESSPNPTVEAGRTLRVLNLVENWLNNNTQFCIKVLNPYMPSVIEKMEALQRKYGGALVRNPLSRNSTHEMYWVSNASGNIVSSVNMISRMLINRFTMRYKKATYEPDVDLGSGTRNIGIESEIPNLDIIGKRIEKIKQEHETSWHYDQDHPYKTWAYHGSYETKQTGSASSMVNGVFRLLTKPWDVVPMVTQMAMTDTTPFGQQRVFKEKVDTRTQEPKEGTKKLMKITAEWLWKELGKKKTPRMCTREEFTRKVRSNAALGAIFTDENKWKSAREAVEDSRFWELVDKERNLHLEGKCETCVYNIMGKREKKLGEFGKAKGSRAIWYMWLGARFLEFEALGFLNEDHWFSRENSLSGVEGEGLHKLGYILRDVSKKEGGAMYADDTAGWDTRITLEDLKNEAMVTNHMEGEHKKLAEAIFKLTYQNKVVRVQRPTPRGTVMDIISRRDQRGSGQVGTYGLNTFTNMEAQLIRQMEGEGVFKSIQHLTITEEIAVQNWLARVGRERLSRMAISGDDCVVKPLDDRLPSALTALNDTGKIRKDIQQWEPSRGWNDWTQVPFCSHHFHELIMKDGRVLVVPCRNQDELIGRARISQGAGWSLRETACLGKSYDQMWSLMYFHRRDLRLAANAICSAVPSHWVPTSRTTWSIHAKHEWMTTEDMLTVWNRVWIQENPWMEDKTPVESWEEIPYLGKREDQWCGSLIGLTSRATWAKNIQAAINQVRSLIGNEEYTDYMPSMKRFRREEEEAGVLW

T1 sequence (Q9HC29 whole entry, the tested form may be a part): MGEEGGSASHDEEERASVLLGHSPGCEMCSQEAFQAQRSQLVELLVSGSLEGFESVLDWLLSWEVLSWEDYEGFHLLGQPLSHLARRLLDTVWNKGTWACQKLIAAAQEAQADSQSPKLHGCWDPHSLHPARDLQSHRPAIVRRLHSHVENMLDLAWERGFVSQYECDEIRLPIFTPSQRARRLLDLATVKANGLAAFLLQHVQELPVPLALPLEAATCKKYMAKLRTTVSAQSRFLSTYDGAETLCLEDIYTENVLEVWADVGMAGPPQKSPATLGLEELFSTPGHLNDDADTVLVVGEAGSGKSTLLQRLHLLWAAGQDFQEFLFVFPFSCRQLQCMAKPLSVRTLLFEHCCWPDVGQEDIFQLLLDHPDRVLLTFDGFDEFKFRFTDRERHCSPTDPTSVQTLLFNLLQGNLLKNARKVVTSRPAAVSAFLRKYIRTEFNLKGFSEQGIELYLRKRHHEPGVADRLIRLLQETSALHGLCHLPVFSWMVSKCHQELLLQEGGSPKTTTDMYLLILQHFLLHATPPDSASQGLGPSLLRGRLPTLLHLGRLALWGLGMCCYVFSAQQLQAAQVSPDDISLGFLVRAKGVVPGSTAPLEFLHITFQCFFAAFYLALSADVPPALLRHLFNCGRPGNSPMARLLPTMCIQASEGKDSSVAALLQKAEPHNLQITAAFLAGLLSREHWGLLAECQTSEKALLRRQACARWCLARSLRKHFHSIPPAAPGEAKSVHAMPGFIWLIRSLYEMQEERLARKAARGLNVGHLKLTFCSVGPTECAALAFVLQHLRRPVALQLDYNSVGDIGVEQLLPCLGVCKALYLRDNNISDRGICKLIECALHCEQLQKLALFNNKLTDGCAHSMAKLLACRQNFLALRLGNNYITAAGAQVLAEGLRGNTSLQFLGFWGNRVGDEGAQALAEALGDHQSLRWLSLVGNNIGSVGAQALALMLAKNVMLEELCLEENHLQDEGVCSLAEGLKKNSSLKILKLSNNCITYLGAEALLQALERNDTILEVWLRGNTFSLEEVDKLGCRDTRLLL

Row | AC50 [9] | AC50 [10] | IC50 [11] | AC50 [12] | EC50 [13] | IC50 (Genome polyprotein) | Compound | IC50 [1] | IC50 (HEK293 [2]) | IC50 [3] | IC50 [4] | IC50 (HEK293 [5]) | IC50 (Tumor necrosis factor) | IC50 [6] | IC50 (Interleukin-8 [7]) | IC50 (Interleukin-8 [8]) | CC50 (Vero)
1 |  |  |  |  |  |  | CC(C)Sc1nc2c(c(=O)[nH]c(=O)n2C)n1Cc1ccccc1 | 18.1 µM (active) | > 20 µM (inactive) | > 20 µM (inactive) | 1.99 µM (active) | > 20 µM (inactive) | > 20 µM (inactive) | 18.5 µM (active) | 3.31 µM (active) | > 25 µM (inactive) | 
2 | 13.5 µM (active) | 9.31 µM (active) | < 0.368 µM (active) | 14.8 µM (active) | 27.8 µM (active) | 37 µM (active) | CCc1ccc([C@@H]2CC=C(C(=O)O)[C@H](c3ccc(C(C)(C)C)cc3)N2S(=O)(=O)c2ccc(C)cc2)cc1 |  |  |  |  |  |  |  |  |  | > 40 µM (active)
